This passage reports mortality and melting point results from patent publication US20090069317A1, “Insecticidal Methods Using 3-Amino-1,2-Benzisothiazole Derivatives” (BASF SE, priority 2005, published 2009).

A value given as a limit tells only on which side of the number the result lay.

Data set [1] concerns Green Peach Aphid (Myzus Persicae). Put plainly: Green peach aphid (Myzus persicae) pepper leaf dip test, mortality. The data set is classed as in vivo. The settings on record: foliar, 120 h, pepper plant leaves dipped, aphid mortality after 5 days, read-out: mortality in comparison with untreated controls. An excerpt: B.2 Green Peach Aphid (Myzus Persicae)
(§1) The active compounds were formulated in 50:50 acetone:water and 100 ppm Kinetic® surfactant.
Pepper plants in the 2nd leaf-pair stage (variety ‘California Wonder’) were infested with approximately 40 laboratory-reared aphids by placing infested leaf sections on top of the test plants. The leaf sections were removed after 24 hr. The leaves of the intact plants were dipped into gradient solutions of the test compound and allowed to dry. Test plants were maintained under fluorescent light (24 hour photoperiod) at about 25° C. and 20-40% relative humidity. Aphid mortality on the treated plants, relative to mortality on check plants, was determined after 5 days.

For a further data set, the system named is Bean Aphid (Aphis fabae). Put plainly: Bean aphid (Aphis fabae) nasturtium plant dip test, mortality. Format: in vivo. The note with it: 72 h, nasturtium plants dipped, aphid mortality after 3 days, read-out: mortality in comparison with untreated controls.
Text: B.3. Bean Aphid (Aphis fabae)
as §1
Nasturtium plants grown in Metro mix in the 1st leaf-pair stage (variety ‘Mixed Jewel’) were infested with approximately 20-30 laboratory-reared aphids by placing infested cut plants on top of the test plants. The cut plants were removed after 24 hr. Each plant was dipped into the test solution to provide complete coverage of the foliage, stem, protruding seed surface and surrounding cube surface and allowed to dry in the fume hood. The treated plants were kept at about 25° C. with continuous fluorescent light. Aphid mortality is determined after 3 days.

Data set [2] deals with Cotton Aphid (Aphis gossypii). Put plainly: Cotton aphid (Aphis gossypii) cotyledon dip test, mortality. The data set is classed as in vivo. The settings on record: 120 h, cotton cotyledons dipped, mortality counts after 5 days, read-out: mortality in comparison with untreated controls.
Text: B.1 Cotton Aphid (Aphis gossypii)
as §1
Cotton plants at the cotyledon stage (one plant per pot) were infested by placing a heavily infested leaf from the main colony on top of each cotyledon. The aphids were allowed to transfer to the host plant overnight, and the leaf used to transfer the aphids was removed. The cotyledons were dipped in the test solution and allowed to dry. After 5 days, mortality counts were made.

`CCN(CC)C1=NS(=O)(=O)c2cccc(Cl)c21` [Compound 3]: the mortality at 300 ppm (in data set [1]; in the data set with Bean Aphid (Aphis fabae); in data set [2]) was over 86% in each case.

Consider `C#CCN(C1=NS(=O)(=O)c2cccc(Cl)c21)C(C)C` [Compound 4], for which the mortality at 300 ppm (in the data set on Bean Aphid (Aphis fabae); in data set [2]) was over 86% in each case.

In the case of `CCN(CC(C)C)C1=NS(=O)(=O)c2cccc(Cl)c21` [Compound 5], the mortality at 300 ppm (with Bean Aphid (Aphis fabae); in data set [2]) was over 86% each time.

Consider `CC(C)N(C1=NS(=O)(=O)c2cccc(Cl)c21)C1CC1` [Compound 6], for which the mortality at 300 ppm (in data set [1]; in the data set on Bean Aphid (Aphis fabae); in data set [2]) was over 86% each time.

Take `CCN(C)C1=NS(=O)(=O)c2cccc(Cl)c21` [Compound 7]: the mortality at 300 ppm (in data set [1]; in the data set with Bean Aphid (Aphis fabae); in data set [2]) was over 86% each time.

As to `C=CCN(CCC)C1=NS(=O)(=O)c2cccc(Cl)c21` [Compound 8], the mortality at 300 ppm (in the data set on Bean Aphid (Aphis fabae); in data set [2]) was over 86% in each case.

Consider `C=CCN(C1=NS(=O)(=O)c2cccc(Cl)c21)C(C)C` [Compound 9], for which the mortality at 300 ppm (with Bean Aphid (Aphis fabae); in data set [2]) was over 86% throughout.

On to `CC(C)N(C1=NS(=O)(=O)c2cccc(Cl)c21)C(C)C` [Compound 11], for which the mortality at 300 ppm in the data set on Bean Aphid (Aphis fabae) was over 86%.

As to `CCN(Cc1ccccc1)C1=NS(=O)(=O)c2cccc(Cl)c21` [Compound 12], the mortality at 300 ppm in the data set with Bean Aphid (Aphis fabae) is over 86%.

For `CN(CC#N)C1=NS(=O)(=O)c2cccc(Cl)c21` [Compound 15], the mortality at 300 ppm (in data set [1]; in the data set with Bean Aphid (Aphis fabae); in data set [2]) was over 86% throughout.

As for `CON(C)C1=NS(=O)(=O)c2cccc(Cl)c21` [Compound 23], the mortality at 300 ppm (in data set [1]; with Bean Aphid (Aphis fabae); in data set [2]) was over 86% throughout.

Turning to `C#CCN(C1=NS(=O)(=O)c2cccc(OC(F)F)c21)C(C)C` [Compound 36], the mortality at 300 ppm (in data set [1]; in the data set on Bean Aphid (Aphis fabae); in data set [2]) was over 86% throughout.

In the case of `CN(C)c1nsc2cccc(Cl)c12` [Compound 49], the mortality at 300 ppm (in data set [1]; in the data set on Bean Aphid (Aphis fabae); in data set [2]) was over 86% each time.

`CCN(CC)c1nsc2cccc(OC(F)F)c12` [Compound 59] showed a melting point of 49 to 50 °C.

By mortality is commonly meant the percentage killed. The melting point is the temperature of the solid-liquid transition.
